Test results: PMC12807552, “The Synthesis of BODIPY-TKI Conjugates and Investigation of Their Ability to Target the Epidermal Growth Factor Receptor” (Targets (Basel), 2023)

Molecular target: EGFR kinase domain (epidermal growth factor receptor) (Homo sapiens, UniProt P00533)
Assay: biochemical

Chain of EGFR kinase domain (epidermal growth factor receptor) (P00533 695-1210): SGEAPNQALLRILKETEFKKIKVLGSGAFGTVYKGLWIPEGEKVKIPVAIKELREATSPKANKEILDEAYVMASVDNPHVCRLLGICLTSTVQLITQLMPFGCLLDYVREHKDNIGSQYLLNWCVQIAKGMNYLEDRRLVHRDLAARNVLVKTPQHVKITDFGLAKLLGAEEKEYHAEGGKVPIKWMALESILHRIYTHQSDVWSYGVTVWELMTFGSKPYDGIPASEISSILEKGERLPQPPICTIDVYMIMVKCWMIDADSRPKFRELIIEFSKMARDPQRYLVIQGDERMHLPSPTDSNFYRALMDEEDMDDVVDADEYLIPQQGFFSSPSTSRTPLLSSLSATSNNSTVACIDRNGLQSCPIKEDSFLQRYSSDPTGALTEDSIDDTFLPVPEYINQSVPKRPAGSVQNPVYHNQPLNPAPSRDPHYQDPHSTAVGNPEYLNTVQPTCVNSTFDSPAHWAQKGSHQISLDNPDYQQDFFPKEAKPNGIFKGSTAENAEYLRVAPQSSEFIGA

COCCOc1cc2ncnc(Nc3cccc(-c4cn(CCOCCOCCOCCNC(=S)Nc5ccc(-c6c7ccccc7c7n6[B-](F)(F)[N+]6=C(c8ccc(N=C=S)cc8)c8ccccc8C6=C7c6cc(OC)cc(OC)c6)cc5)nn4)c3)c2cc1OCCOC [compound 5, BODIPY-monoTKI]
Kd: 8.04 µM
